In patent publication US7781438B2, “Indolylmaleimide derivatives” (Novartis AG, priority 2005, dated 2010):

Legend:
Human recombinant PKCη = target: T1, Human recombinant PKCη (Homo sapiens, UniProt P24723); experiment: Protein Kinase Cη assay; format: biochemical
T1 construct: purchased PanVera
Procedure: (§1) The compounds of the invention are tested for their activity on different PKC isoforms according to the following method. Assay is performed in a white with clear bottom 384-well microtiterplate with non-binding surface. The reaction mixture (25 μl) contains 1.5 μM of a tridecapeptide acceptor substrate that mimics the pseudo substrate sequence of PKC a with the Ala→Ser replacement, 10 μM ^33P-ATP, 10 mM Mg(NO3)2, 0.2 mM CaCl2, PKC at a protein concentration varying from 25 to 400 ng/ml (depending on the isotype used), lipid vesicles (containing 30 mol % phosphatidylserine, 5 mol % DAG and 65 mol % phosphatidylcholine) at a final lipid concentration of 0.5 mM, in 20 mM Tris-HCl buffer pH 7.4+0.1% BSA. Incubation is performed for 60 min at room temperature. Reaction is stopped by adding […] of stop mix (100 mM EDTA, 200 μM ATP, 0.1% Triton X-100, 0.375 mg/well streptavidin-coated SPA beads in phosphate buffered saline w/o Ca, Mg. After 10 min incubation at room temperature, the suspension is spun down for 10 min at 300 g. Incorporated radioactivity is measured in a Trilux counter for 1 min. IC50 measurement is performed on a routine basis by incubating a serial dilution of inhibitor at concentrations ranging between 1-1000 μM. IC50 values are calculated from the graph by curve fitting with XL Fit® software. […]

Human recombinant PKCβ1 = target: T2, Human recombinant PKCβ1 (Homo sapiens, UniProt P05771); experiment: Protein Kinase Cβ1 assay; format: biochemical; conditions: for IC50: human recombinant PKCβ1, single compounds
T2 construct: purchased Oxford Biomedical Research
Procedure: (§2) The compounds of the invention are tested for their activity on different PKC isoforms according to the following method. Assay is performed in a white with clear bottom 384-well microtiterplate with non-binding surface. The reaction mixture (25 μl) contains 1.5 μM of a tridecapeptide acceptor substrate that mimics the pseudo substrate sequence of PKC a with the Ala→Ser replacement, 10 μM ^33P-ATP, 10 mM Mg(NO3)2, 0.2 mM CaCl2, PKC at a protein concentration varying from 25 to 400 ng/ml (depending on the isotype used), lipid vesicles (containing 30 mol % phosphatidylserine, 5 mol % DAG and 65 mol % phosphatidylcholine) at a final lipid concentration of 0.5 mM, in 20 mM Tris-HCl buffer pH 7.4+0.1% BSA. Incubation is performed for 60 min at room temperature. Reaction is stopped by adding […] of stop mix (100 mM EDTA, 200 μM ATP, 0.1% Triton X-100, 0.375 mg/well streptavidin-coated SPA beads in phosphate buffered saline w/o Ca, Mg. After 10 min incubation at room temperature, the suspension is spun down for 10 min at 300 g. Incorporated radioactivity is measured in a Trilux counter for 1 min. IC50 measurement is performed on a routine basis by incubating a serial dilution of inhibitor at concentrations ranging between 1-1000 μM. IC50 values are calculated from the graph by curve fitting with XL Fit® software.
Human recombinant PKCβ1 was obtained from Oxford Biomedical Research and is used under the assay conditions as described under Section A.1 above.

Human recombinant PKCε = target: T3, Human recombinant PKCε (Homo sapiens, UniProt Q02156); experiment: Protein Kinase Cε assay; format: biochemical
T3 construct: purchased Oxford Biomedical Research
T3 sequence (Q02156 1-737): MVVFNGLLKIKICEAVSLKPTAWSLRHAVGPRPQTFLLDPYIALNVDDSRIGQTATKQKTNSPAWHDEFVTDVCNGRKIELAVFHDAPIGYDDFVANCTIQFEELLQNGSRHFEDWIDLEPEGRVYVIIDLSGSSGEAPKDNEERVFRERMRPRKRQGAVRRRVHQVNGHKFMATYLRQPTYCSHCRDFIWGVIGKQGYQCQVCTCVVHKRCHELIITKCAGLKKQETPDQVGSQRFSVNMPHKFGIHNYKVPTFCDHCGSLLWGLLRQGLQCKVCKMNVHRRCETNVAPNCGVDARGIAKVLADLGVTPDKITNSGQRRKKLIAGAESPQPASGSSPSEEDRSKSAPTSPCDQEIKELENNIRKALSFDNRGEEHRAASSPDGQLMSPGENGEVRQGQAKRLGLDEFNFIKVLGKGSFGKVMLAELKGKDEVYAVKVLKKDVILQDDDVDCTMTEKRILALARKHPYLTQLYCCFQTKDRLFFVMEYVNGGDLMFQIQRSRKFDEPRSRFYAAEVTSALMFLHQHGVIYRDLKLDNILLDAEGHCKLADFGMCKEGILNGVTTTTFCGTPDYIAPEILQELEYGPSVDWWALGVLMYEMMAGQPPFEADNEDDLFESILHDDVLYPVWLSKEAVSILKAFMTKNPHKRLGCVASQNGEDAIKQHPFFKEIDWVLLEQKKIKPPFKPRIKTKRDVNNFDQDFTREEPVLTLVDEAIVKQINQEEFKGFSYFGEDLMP
Procedure: as §1

[1] = tested on: spleen cells from CBA and BALB/c mice; experiment: Allogeneic Mixed Lymphocyte Reaction (MLR), compared with BM assay; format: cell-based
Procedure: The two-way MLR is performed according to standard procedures (J. Immunol. Methods, 1973, 2, 279 and Meo T. et al., Immunological Methods, New York, Academic Press, 1979, 227-39). Briefly, spleen cells from CBA and BALB/c mice (1.6×10^5 cells from each strain per well in flat bottom tissue culture microtiter plates, 3.2×10^5 in total) are incubated in RPMI medium containing 10% FCS, 100 U/ml penicillin, 100 μg/ml streptomycin (Gibco BRL, Basel, Switzerland), 50 μM 2-mercaptoethanol (Fluka, Buchs, Switzerland) and serially diluted compounds. Seven three-fold dilution steps in duplicates per test compound are performed. After four days of incubation 1 μCi ^3H-thymidine is added. Cells are harvested after an additional five-hour incubation period, and incorporated ^3H-thymidine is determined according to standard procedures. […]
The ratios of the IC50 value for PKC β to the IC50 value for PKCα, of the IC50 value for PKC δ to the IC50 value for PKCα, of the IC50 value for PKC δ to the IC50 value for PKCα, of the IC50 value for PKC ε to the IC50 value for PKCα, of the IC50 value for PKC η to the IC50 value for PKCα, of the IC50 value for PKC θ to the IC50 value for PKCα, of the IC50 value as determined by the MLR assay and to the IC50 value as determined by the BM assay, obtained for some compounds of the invention are indicated in table 11.

Human recombinant PKCδ = target: T4, Human recombinant PKCδ (Homo sapiens, UniProt Q05655); experiment: Protein Kinase Cδ assay; format: biochemical
T4 construct: purchased Oxford Biomedical Research
Procedure: as §1

Human recombinant PKCθ = Human recombinant PKCθ (Homo sapiens, UniProt Q04759); experiment: Protein Kinase C θ assay; format: biochemical
Procedure: as §1

Human recombinant PKCα = target: T5, Human recombinant PKCα (Homo sapiens, UniProt P17252); experiment: Protein Kinase Cα assay; format: biochemical; conditions: single compounds
T5 construct: purchased Oxford Biomedical Research
Procedure: as §2
Human recombinant PKCα was obtained from Oxford Biomedical Research and is used under the assay conditions as described under Section A.1 above.

T2 sequence (P05771 whole entry): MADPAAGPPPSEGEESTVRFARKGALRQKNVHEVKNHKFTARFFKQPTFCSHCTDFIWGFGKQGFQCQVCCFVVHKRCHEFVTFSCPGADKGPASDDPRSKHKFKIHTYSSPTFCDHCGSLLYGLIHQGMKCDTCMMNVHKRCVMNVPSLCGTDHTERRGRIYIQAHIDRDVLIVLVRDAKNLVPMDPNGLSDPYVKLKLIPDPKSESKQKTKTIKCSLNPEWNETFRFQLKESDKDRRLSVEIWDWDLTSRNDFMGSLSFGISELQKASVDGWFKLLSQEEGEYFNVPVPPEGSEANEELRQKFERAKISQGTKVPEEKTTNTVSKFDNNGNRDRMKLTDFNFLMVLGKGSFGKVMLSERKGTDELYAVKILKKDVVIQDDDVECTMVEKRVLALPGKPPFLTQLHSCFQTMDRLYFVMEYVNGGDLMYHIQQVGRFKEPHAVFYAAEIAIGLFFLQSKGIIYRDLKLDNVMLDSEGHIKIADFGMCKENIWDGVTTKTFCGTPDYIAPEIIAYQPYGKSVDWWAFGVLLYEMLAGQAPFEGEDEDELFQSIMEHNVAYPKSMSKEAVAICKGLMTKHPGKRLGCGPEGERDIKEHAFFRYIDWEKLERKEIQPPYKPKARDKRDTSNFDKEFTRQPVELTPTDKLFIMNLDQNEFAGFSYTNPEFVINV
Human recombinant PKCθ, sequence (Q04759 whole entry): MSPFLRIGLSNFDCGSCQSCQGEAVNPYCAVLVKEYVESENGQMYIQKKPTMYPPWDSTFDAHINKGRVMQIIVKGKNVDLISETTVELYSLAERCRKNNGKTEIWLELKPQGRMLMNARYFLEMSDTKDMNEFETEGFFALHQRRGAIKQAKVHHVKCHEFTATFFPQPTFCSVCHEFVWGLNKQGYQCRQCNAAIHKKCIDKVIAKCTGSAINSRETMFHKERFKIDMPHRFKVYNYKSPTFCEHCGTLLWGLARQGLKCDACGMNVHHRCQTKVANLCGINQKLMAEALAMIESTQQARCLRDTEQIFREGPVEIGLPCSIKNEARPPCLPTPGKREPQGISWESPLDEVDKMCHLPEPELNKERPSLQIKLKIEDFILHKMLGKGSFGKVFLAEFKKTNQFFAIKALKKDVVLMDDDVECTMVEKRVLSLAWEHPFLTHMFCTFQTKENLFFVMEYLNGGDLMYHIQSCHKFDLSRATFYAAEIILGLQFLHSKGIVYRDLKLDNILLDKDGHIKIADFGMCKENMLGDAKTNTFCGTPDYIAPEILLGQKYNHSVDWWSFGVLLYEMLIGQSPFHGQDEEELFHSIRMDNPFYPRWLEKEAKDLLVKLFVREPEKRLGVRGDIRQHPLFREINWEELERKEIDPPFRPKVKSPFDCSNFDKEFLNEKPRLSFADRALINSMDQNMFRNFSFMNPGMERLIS
T4 sequence (Q05655 whole entry): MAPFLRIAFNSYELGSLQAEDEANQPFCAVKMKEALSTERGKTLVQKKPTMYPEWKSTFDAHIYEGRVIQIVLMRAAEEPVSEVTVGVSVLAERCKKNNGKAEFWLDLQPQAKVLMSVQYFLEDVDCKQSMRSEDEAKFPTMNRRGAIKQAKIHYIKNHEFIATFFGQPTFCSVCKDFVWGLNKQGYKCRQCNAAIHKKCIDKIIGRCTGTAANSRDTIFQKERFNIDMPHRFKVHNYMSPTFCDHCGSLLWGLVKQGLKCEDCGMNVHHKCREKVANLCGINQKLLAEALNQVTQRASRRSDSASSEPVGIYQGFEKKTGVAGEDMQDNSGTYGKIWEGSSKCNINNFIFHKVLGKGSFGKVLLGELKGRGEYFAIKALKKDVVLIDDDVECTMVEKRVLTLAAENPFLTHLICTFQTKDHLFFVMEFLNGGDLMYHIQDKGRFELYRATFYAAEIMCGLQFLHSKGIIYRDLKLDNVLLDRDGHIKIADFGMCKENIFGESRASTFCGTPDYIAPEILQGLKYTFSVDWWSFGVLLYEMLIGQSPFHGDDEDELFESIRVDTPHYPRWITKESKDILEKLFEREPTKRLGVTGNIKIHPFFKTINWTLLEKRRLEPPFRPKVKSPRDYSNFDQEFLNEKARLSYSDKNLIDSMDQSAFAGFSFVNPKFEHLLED
T1 sequence (P24723 whole entry): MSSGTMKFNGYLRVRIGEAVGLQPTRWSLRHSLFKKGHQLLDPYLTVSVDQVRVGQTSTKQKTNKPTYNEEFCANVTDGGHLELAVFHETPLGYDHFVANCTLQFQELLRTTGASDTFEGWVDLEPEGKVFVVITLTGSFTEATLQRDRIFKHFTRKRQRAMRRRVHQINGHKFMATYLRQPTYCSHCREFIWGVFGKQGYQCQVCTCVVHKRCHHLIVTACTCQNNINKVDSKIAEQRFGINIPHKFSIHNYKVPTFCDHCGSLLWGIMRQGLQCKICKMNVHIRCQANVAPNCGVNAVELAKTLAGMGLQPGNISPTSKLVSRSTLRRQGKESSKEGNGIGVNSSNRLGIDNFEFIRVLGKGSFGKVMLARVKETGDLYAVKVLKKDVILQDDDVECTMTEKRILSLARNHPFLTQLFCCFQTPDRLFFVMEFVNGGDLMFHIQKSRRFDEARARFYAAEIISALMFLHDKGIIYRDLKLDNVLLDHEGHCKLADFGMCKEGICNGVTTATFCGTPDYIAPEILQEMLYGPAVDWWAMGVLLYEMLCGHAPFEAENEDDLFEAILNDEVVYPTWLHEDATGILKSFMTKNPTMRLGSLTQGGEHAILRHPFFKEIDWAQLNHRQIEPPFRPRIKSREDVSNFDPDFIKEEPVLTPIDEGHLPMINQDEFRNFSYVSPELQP

With `Cn1cc(C2=C(c3c(Cl)ccc4ccc(CNCCF)cc34)C(=O)NC2=O)c2ccccc21` [Example 1, 3-{2-Chloro-7-[(2-fluoro-ethylamino)-methyl]-naphthalen-1-yl}-4-(1-methyl-1H-indol-3-yl)-pyrrole-2,5-dione] the “η/α (ratio of the IC50 value for PKC η to the IC50 value for PKCα)” value (Human recombinant PKCη) was 39.3, the “β/α (ratio of the IC50 value for PKC β to the IC50 value for PKCα)” value (Human recombinant PKCβ1) was 0.5 and the “ε/α (ratio of the IC50 value for PKC ε to the IC50 value for PKCα)” value (Human recombinant PKCε) was 19.4. The “BM/MLR (ratio of IC50 by the BM assay and IC50 by the MLR assay)” value [1] was 41.3, the “δ/α (ratio of the IC50 value for PKC δ to the IC50 value for PKCα)” value (Human recombinant PKCδ) was 7.1 and the “θ/α (ratio of the IC50 value for PKC θ to the IC50 value for PKCα)” value (Human recombinant PKCθ) was 2.9.
In the case of `CN(C)Cc1ccc2ccc(Cl)c(C3=C(c4cn5c6c(cccc46)OCCC5)C(=O)NC3=O)c2c1` [Example 20], the “η/α (ratio of the IC50 value for PKC η to the IC50 value for PKCα)” value (Human recombinant PKCη) is reported as over 35.7, the IC50 (Human recombinant PKCα) is reported as 28 nM and the “β/α (ratio of the IC50 value for PKC β to the IC50 value for PKCα)” value (Human recombinant PKCβ1) is reported as 0.4. For the same molecule, the IC50 (Human recombinant PKCβ1) was 12.4 nM, the “ε/α (ratio of the IC50 value for PKC ε to the IC50 value for PKCα)” value (Human recombinant PKCε) was over 35.7 and the “BM/MLR (ratio of IC50 by the BM assay and IC50 by the MLR assay)” value [1] was over 10. For the same molecule, the “δ/α (ratio of the IC50 value for PKC δ to the IC50 value for PKCα)” value (Human recombinant PKCδ) was 30.6 and the “θ/α (ratio of the IC50 value for PKC θ to the IC50 value for PKCα)” value (Human recombinant PKCθ) was 14.2.
`COc1cccc2c(C3=C(c4c(Cl)ccc5ccc(CN(C)C)cc45)C(=O)NC3=O)c[nH]c12` [Example 37] showed an IC50 (Human recombinant PKCα) of 3 nM.
`COCCOc1ccc2c(C3=C(c4c(Cl)ccc5ccc(CN(C)C)cc45)C(=O)NC3=O)c[nH]c2c1` [Example 38] showed an IC50 (Human recombinant PKCα) of 9 nM.
`Cc1cccc2c(C3=C(c4c(Cl)ccc5ncc(CN(C)C)cc45)C(=O)NC3=O)c[nH]c12` [Example 136] gave an IC50 (Human recombinant PKCβ1) of 51 nM.
For `CN(C)Cc1cc2c(C3=C(c4c[nH]c5ccccc45)C(=O)NC3=O)c(Cl)ccc2cn1` [Example 146], the IC50 (Human recombinant PKCβ1) was 25 nM.
`CN(C)Cc1ccc2ccc(Cl)c(C3=C(c4cn(C)c5ccccc45)C(=O)NC3=O)c2n1` [Example 163] showed an IC50 (Human recombinant PKCβ1) of 41 nM.
